PubChem BioAssay (NCI)
Several values for one entry are separate records, joined by “and”; a condition that tells them apart may be missing. Identical values can stand only once.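 Briefly, cells in 96-well plates were exposed to five compound concentrations for 48 h, and endpoints were estimated by linear interpolation. The concentration for 50% growth inhibition is given as GI50. At the TGI there is no net growth.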

Tests used:
Test in all cases: DTP human tumour cell line panel, 48 h
SK-OV-3 ovarian = system: SK-OV-3 ovarian
TK-10 renal = system: TK-10 renal
HCT-15 colon = system: HCT-15 colon
SF-268 CNS = system: SF-268 CNS
SNB-19 CNS = system: SNB-19 CNS
786-0 renal = system: 786-0 renal
A549 NSCLC = system: A549 NSCLC
OVCAR-3 ovarian = system: OVCAR-3 ovarian
U251 CNS = system: U251 CNS
OVCAR-8 ovarian = system: OVCAR-8 ovarian

| Compound | GI50 (SK-OV-3 ovarian) | TGI (SK-OV-3 ovarian) | GI50 (TK-10 renal) | TGI (TK-10 renal) | GI50 (HCT-15 colon) | TGI (HCT-15 colon) [µM] | GI50 (SF-268 CNS) | TGI (SF-268 CNS) | GI50 (SNB-19 CNS) | TGI (SNB-19 CNS) | GI50 (786-0 renal) | TGI (786-0 renal) | GI50 (A549 NSCLC) | TGI (A549 NSCLC) | GI50 (OVCAR-3 ovarian) | TGI (OVCAR-3 ovarian) | GI50 (U251 CNS) | TGI (U251 CNS) | GI50 (OVCAR-8 ovarian) | TGI (OVCAR-8 ovarian) |
| --- | --- | --- | --- | --- | --- | --- | --- | --- | --- | --- | --- | --- | --- | --- | --- | --- | --- | --- | --- | --- |
| Cc1cc2c(cc1Cl)S/C(=C/C(=O)O)C(Nc1cccc3nsnc13)=NS2(=O)=O | > 49.5 µM | > 62.5 µM | > 58 µM | > 72.5 µM | > 54.7 µM | > 68.8 | 49.2 µM | > 84.4 µM | > 52 µM | > 66.8 µM | 36.5 µM | > 62.2 µM | > 51 µM | > 81.3 µM | 47.5 µM | > 69.8 µM | 35.6 µM | > 71.7 µM | > 53.2 µM | > 74.8 µM |
| CCOc1ccc(Nc2c3ccccc3nc3ccccc23)cc1 | 0.501 µM and 0.323 µM | 6.06 µM and 7.73 µM | 0.797 µM and 0.654 µM | 4.27 µM and 12.3 µM | 0.592 µM and 0.552 µM | 3.18 | 0.709 µM and 0.526 µM | 19.1 µM and 13.9 µM | 0.817 µM and 0.556 µM | 13.8 µM and 15.3 µM | 0.666 µM and 0.34 µM | 6.67 µM and 2.61 µM | 0.734 µM and 0.887 µM | 9.63 µM and 12.5 µM | 0.313 µM and 0.264 µM | 1.17 µM and 1.03 µM | 0.464 µM and 0.381 µM | 2.25 µM and 1.9 µM | 0.54 µM and 0.592 µM | 2.45 µM and 15 µM |
| COc1ccc(C(=O)c2nc3ccccc3n2CC(=O)c2ccc(Cl)cc2)cc1 | 10.4 µM | > 100 µM | 4.02 µM | > 100 µM | 2 µM | > 100 | 5.98 µM | > 100 µM | 4.32 µM | > 100 µM | 3.88 µM | > 100 µM | 17.5 µM | > 100 µM | 2.55 µM | > 20.4 µM | 3.41 µM | > 100 µM | 6.3 µM | > 100 µM |
| C=CCNC(=O)N(CCC)CCCC(NC(C)=O)C(=O)NCc1ccccc1 (stereo not given) |  | > 100 µM |  | > 100 µM |  | > 100 |  | > 100 µM |  | > 100 µM |  | > 100 µM |  | > 100 µM |  | > 100 µM |  | > 100 µM |  | > 100 µM |
| COc1cccc(COc2cc(-n3cnc4ccccc43)sc2C(N)=O)c1 | > 16.2 µM | > 25 µM | > 25 µM | > 25 µM | > 25 µM | > 25 | 5.88 µM | > 25 µM | 14.4 µM | > 25 µM | > 25 µM | > 25 µM | > 21.7 µM | > 25 µM | 5.09 µM | > 25 µM | > 13.6 µM | > 25 µM | 11.9 µM | > 25 µM |
| Cc1ccc(NC(=O)/C(Cc2cc(=O)oc3cc(O)ccc23)=N\NC(=O)C[N+](C)(C)C)cc1C |  | > 100 µM |  | > 100 µM |  | > 100 |  | > 100 µM |  | > 100 µM |  | > 100 µM |  | > 100 µM |  | > 100 µM |  | > 100 µM |  | > 100 µM |
| Cc1ccc(-n2nc(C(C)(C)C)cc2NC(=O)NCc2cc(F)ccc2Oc2ccc3c(cnn3CCO)c2)cc1 | > 10 µM and 9.24 µM | > 83.9 µM | > 10 µM and 10.8 µM | > 91.9 µM | > 10 µM and 8.9 µM | > 100 | > 10 µM and 4.61 µM | > 100 µM | > 10 µM and 17.9 µM | > 100 µM | > 10 µM and 8.58 µM | > 100 µM | > 10 µM and 11.7 µM | > 100 µM | > 10 µM and 7.65 µM | > 76.5 µM | > 10 µM and 7.01 µM | > 100 µM | > 10 µM and 8.96 µM | > 100 µM |
| CCCCCCCCCCCC1CC(=O)NCCCN(C)CCCCN(C)CCCN1C (stereo not given) |  | 3.2 µM |  | 3.12 µM |  | 3 |  | 3.3 µM |  | 3.1 µM |  | 2.89 µM |  | 3.16 µM |  | 3.07 µM |  | 3.04 µM |  | 3.33 µM |
| O=C(NCCN1CCNCC1)c1ccc(Nc2nc3ccccc3c3occc23)cc1 | 19.3 µM | 47.5 µM | 18.3 µM | 35.2 µM | 20 µM | 37.9 | 21.3 µM | > 100 µM | 15.5 µM | > 100 µM | 8.06 µM | 21.6 µM | 17.5 µM | 36.8 µM | 14.5 µM | 80.1 µM | 17.9 µM | 33.1 µM | 23.2 µM | 75.7 µM |
| COc1ccc(F)c(F)c1C(=O)c1cnc(NC2CCN(S(C)(=O)=O)CC2)nc1N | 4.35 µM and 4.24 µM | > 100 µM | 0.493 µM and 0.333 µM | > 20.3 µM | 0.484 µM and 0.361 µM | > 100 | 1.14 µM and 0.527 µM | 7.16 µM and > 7.59 µM | 0.576 µM and 0.445 µM | > 100 µM | 0.666 µM and 0.388 µM | > 27 µM | 0.422 µM and 0.397 µM | > 26.5 µM | 0.961 µM and 0.588 µM | 5.26 µM and 6.56 µM | 0.484 µM and 0.371 µM | > 100 µM | 1.18 µM and 0.58 µM | > 100 µM |
| O=C(O)c1ccccc1C(=O)c1ccc2c(c1)Cc1ccccc1-2 |  | > 100 µM |  | > 100 µM |  | > 100 |  | > 100 µM |  | > 100 µM |  | > 100 µM |  | > 100 µM |  | > 100 µM |  | > 100 µM |  | > 100 µM |
| COc1ccc2c(NCCCCCCNc3c4ccccc4nc4cc(OC)ccc34)c3ccccc3nc2c1 |  | 2.04 µM |  | 4.56 µM |  | 9.36 |  | 12.5 µM |  | 3.75 µM |  | 1.3 µM |  | 11.9 µM |  | 1.76 µM |  | 1.47 µM |  | 11 µM |
| CCCCCCCCCCCCCC[n+]1cccc(C(N)=O)c1 | 1.9 µM | 8.13 µM | 0.675 µM | 2.02 µM | 13.5 µM | 58.3 | 1.66 µM | 4.48 µM | 1.01 µM | 2.4 µM | 1.32 µM | 2.82 µM | 4.08 µM | 18.4 µM | 1.93 µM | 5.02 µM | 0.652 µM | 2.11 µM | 2.12 µM | 6.22 µM |
| c1cnn2ncc(-c3ccnc(Nc4ccc5c(c4)OCCO5)n3)c2c1 | 0.178 µM | > 25 µM | 0.0685 µM | 0.224 µM | 0.0863 µM | > 25 | 0.0687 µM | 0.311 µM | 0.0882 µM | > 25 µM | 0.0764 µM | > 25 µM | 0.0753 µM | 3.07 µM | 0.0548 µM | 0.142 µM | 0.0778 µM | 2.69 µM | 0.0687 µM | > 25 µM |
| COc1cc(CNc2nc3ccc(C(F)(F)F)cc3nc2-c2ccccc2)cc(OC)c1OC |  | > 100 µM |  | > 100 µM |  | > 100 |  | > 100 µM |  | > 100 µM |  | > 100 µM |  | > 100 µM |  | > 100 µM |  | > 100 µM |  | > 100 µM |
| COc1ccc(Nc2nccc(N3CCN(c4c5ccc(Cl)cc5nc5ccc(OC)cc45)CC3)n2)cc1 | 53.1 µM | > 100 µM | 11.5 µM | > 100 µM | 4.48 µM | > 100 | 11.8 µM | > 100 µM | 18.5 µM | > 100 µM | 5.4 µM | 47.2 µM | 7.51 µM | > 100 µM | 11.1 µM | > 100 µM | 4.36 µM | > 100 µM | 6.53 µM | > 100 µM |
| N#Cc1c(-c2ccco2)cc(-c2ccccc2)[nH]c1=O |  | > 100 µM |  | > 100 µM |  | > 100 |  | > 100 µM |  | > 100 µM |  | > 100 µM |  | > 100 µM |  | > 100 µM |  | > 100 µM |  | > 100 µM |
| CC(C)Oc1ccc(C(=O)Cn2ccnc2)cc1-n1c(CN2CCN(C(=O)COc3ccc(Cl)cc3)CC2)nc2ccccc2c1=O | 20 µM | 76.2 µM | 12.8 µM | > 74.4 µM | 12.3 µM | 32.6 | 12.9 µM | 32.9 µM | 29.6 µM | > 100 µM | 1.3 µM | 5.48 µM | 18.4 µM | > 72.1 µM | 2.18 µM | 13.2 µM | 13.2 µM | 30.2 µM | 15.5 µM | 53.2 µM |
| Cc1cccc(N(CC(=O)O)S(=O)(=O)c2ccccc2)c1 |  | > 100 µM |  | > 100 µM |  | > 100 |  | > 100 µM |  | > 100 µM |  | > 100 µM |  | > 100 µM |  | > 100 µM |  | > 100 µM |  | > 100 µM |
| CC(=O)n1c(=O)c2cc3c(=O)n(-c4cccc(C#N)c4)c(=O)c3cc2c1=O |  | > 100 µM |  | > 100 µM |  | > 100 |  | > 100 µM |  | > 100 µM |  | > 100 µM |  | > 100 µM |  | > 100 µM |  | > 100 µM |  | > 100 µM |
| CC1(C)CC(=O)C(CC2C(=O)c3ccccc3C2=O)C(=O)C1 |  | > 100 µM |  | > 100 µM |  | > 100 |  | > 100 µM |  | > 100 µM |  | > 100 µM |  | > 100 µM |  | > 100 µM |  | > 100 µM |  | > 100 µM |
| CN1c2ccccc2SC2C(c3ccccc3)=NOC21 (stereo not given) |  | > 100 µM |  | 80 µM |  | 43.7 |  | > 100 µM |  | > 100 µM |  | > 100 µM |  | > 100 µM |  | > 100 µM |  | > 100 µM |  | > 100 µM |
| c1ccc(-c2nc(N3CCCNCC3)c3nc(-c4ccccc4)oc3n2)cc1 | 1.74 µM | 3.19 µM | 1.53 µM | 3 µM | 1.47 µM | 2.89 | 1.76 µM | 3.62 µM | 1.71 µM | 3.34 µM | 1.73 µM | 3.45 µM | 1.8 µM | 3.71 µM | 1.75 µM | 3.21 µM | 1.74 µM | 3.31 µM | 2.13 µM | 4.93 µM |
